Read-outs that look alike come from different tables or passages of the source.
What was measured:
[1] = system: β2ARs in permeabilized A431 cells; test: Phosphorylation of β2ARs in permeabilized A431 cells; assay type: cell-based, human; conditions: 1 μM isoproterenol, absence of heparin
Protocol: FIG. 8. Phosphorylation of β2ARs in permeabilized A431 cells. […] FIG. 8A: Autoradiogram obtained after a 10-day exposure at −70° C. FIG. 8B: Transverse densitometric scan of the autoradiogram.
β2ARs in permeabilized A431 cells were phosphorylated as follows. Permeabilized cells (4×10^8) in 10 ml of KG-A buffer containing 1 mCi (1 Ci=37 GBq) of [γ-^32P]ATP were incubated with or without 1 μM (−)-isoproterenol (and other compounds as indicated) for 10 min at 37° C. All buffers used in these experiments contained 5 μg of soybean tryspin inhibitor, 5 μg of leupeptin, and 10 μg of benzamidine per ml and 0.1 mM phenylmethylsulfonyl fluoride. […] After three identical washing steps, crude membranes were prepared as above.
Aliquots of the samples (≈60 fmol of β2ARs) were desalted over Sephadex G-50 and incubated for 2 hr at 20° C. with 200 pM of the ligand with or without 10 μM alprenolol. Free ligand was removed by desalting as above, and the samples were irradiated with UV light for 3 min. The samples were loaded on the same gel as the samples described above.

[2] = system: adenylyl cyclase in membranes of A431 cells; test: cells; conditions: Homo sapiens
Protocol: FIG. 5. […] Cells were incubated for 10 min with (desensitized) (●) or without (control) (◯) 1 μM (−)-isoproterenol as detailed. Adenylyl cyclase activities of membranes prepared from the cells were measured in the presence of various concentrations of (−)-isoproterenol and were expressed as percent of the activity in the presence of 10 mM NaF. […] Data are means±SEM of three independent experiments.
Desensitization of β2ARs in A431 cells was effected as follows. Permeabilized cells in KG-A buffer (or, for controls, intact cells in PBS) were incubated with or without 1 μM (−)-isoproterenol for 10 min or the indicated times (4×10^7 cells per ml). The incubation was terminated by addition of 10 vol of ice-cold KG buffer (or PBS, respectively), followed by centrifugation at 1000×g for 5 min. After three identical washes, cells were disrupted with a Polytron homogenizer in 5 mM Tris-HCl, pH 7.4/2 mM EDTA. Crude membranes were prepared by spinning the supernatant after low-speed centrifugation (1000×g for 5 min) at 40,000×g for 20 min.
Adenylyl cyclase activity in the membranes was determined as described by Salomon et al (Anal. Biochem. (1974) 58:541-548). The free Mg^2+ concentration in the assay was 4 mM.
Concentration-response curves were analyzed by nonlinear curve-fitting to the Hill equation as described (Lohse et al (1986) Mol. Pharmacol. 30:403-409). Adenylyl cyclase activity was expressed as the percentage of the activity in the presence of 10 mM NaF. Since NaF stimulates adenylyl cyclase via the stimulatory guanine nucleotide binding protein, Gs, this normalizes for effects that occur at the level of Gs or the cyclase (i.e., which effects represent heterologous desensitization). Desensitization was assessed by measuring the loss of maximal stimulation by isoproterenol [determined with 10 μM (−)-isoproterenol] and was calculated as [1−stimulation (desensitized)/stimulation (control)]×100. For example, a decrease from 60% to 40% of NaF-stimulated activity corresponds to a desensitization of [1−(40/60)]×100=33%.

CC(C)NC[C@H](O)c1ccc(O)c(O)c1 [isoproterenol, (−)-isoproterenol]
increase in the phosphorylation of the β2ARs [1]: 5 fold | Emax ([2]; A-431, 10 min, read-out: desensitization (loss of maximal stimulation), 1 μM isoproterenol 10 min 37° C., both intact and permeabilized cells): ~30% | EC50 ([2]; A-431, read-out: EC50, adenylyl cyclase stimulation, control intact cells): 0.2 µM | EC50 ([2]; A-431, read-out: EC50, adenylyl cyclase stimulation, control permeabilized cells): 0.13 µM | EC50 ([2]; A-431, read-out: EC50, adenylyl cyclase stimulation, desensitized intact cells): 0.3 µM | EC50 ([2]; A-431, read-out: EC50, adenylyl cyclase stimulation, desensitized permeabilized cells): 0.19 µM | Emax ([2]; A-431, read-out: Emax, maximal stimulation over basal in percent of activity with 10 mM NaF, control intact cells): 56% | Emax ([2]; A-431, read-out: Emax, maximal stimulation over basal in percent of activity with 10 mM NaF, control permeabilized cells): 62% | Emax ([2]; A-431, read-out: Emax, maximal stimulation over basal in percent of activity with 10 mM NaF, desensitized intact cells): 40% | Emax ([2]; A-431, read-out: Emax, maximal stimulation over basal in percent of activity with 10 mM NaF, desensitized permeabilized cells): 43%

From US6605424B1, “Method of detecting inhibitors of agonist-specific desensitization” (Duke University, priority 1989, dated 2003)
